Experimental data as given in article PMC10877577 (ACS Chemical Biology, 2024).
Entries after “also recorded” stand apart in the source; their conditions may differ.

How the values were obtained:
[1] = test system: SupT1 GWARA-CD8stk-CD28TM and SupT1 aMinoC1-CD8stk-CD28TM cells; experiment: Cell–cell binding assay (aggregate formation); format: cell-based, human; settings: 10 μM minocycline, 24 h time course
Procedure: SupT1 cells were transduced to express GWARA-CD8a spacer-CD28TM-2A-mCherry and aMinoC1 sdAb-CD8 spacer-CD28TM-2A-eGFP. 0.5 × 10^4 cells were cocultured in RPMI (RPMI-1640) supplemented with 10% fetal bovine serum (FBS) and 2 mM GlutaMAX. […] Images were captured using an IncuCyte real-time imager. Time-course images were analyzed using ImageJ (NIH v1.53t) using an image analyzer (20 px^2-infinite size, 0.0–1.0 circularity).

[2] = in vivo; cited from earlier work
[3] = test system: MinoUniCAR-transduced PBMCs; experiment: MinoUniCAR IFN-γ release with EGFR-peptide adaptor; format: cell-based, human; settings: 10 vs 0 μM minocycline
Procedure: IFN-γ, IL2, and IL12 secretion was measured by collecting the supernatant from the respective cell-based assay and frozen at −20 °C prior to analysis by ELISA. IFN-γ, IL2, and IL12 ELISAs were carried out using the Human IFN-γ ELISA MAX Deluxe kit, Human IL2 ELISA MAX Deluxe kit, and Human IL12 (p70) ELISA MAX Deluxe kit in accordance with the manufacturer’s instructions (BioLegend).
Transduced PBMCs were stained using RQR8 expression and V5 markers. Cells were then normalized to 50% efficiency by diluting with nontransduced T cells. The tumor-targeting adaptor protein (EGFR sdAb) fused to the GWARA peptide was separately expressed by CHO cell transient transfection and purified by His-tag chromatography. […] IFN-γ secretion was measured as described above.

aMinoC1-peptide complex = experiment: SPR rechallenge: small-molecule-driven dissociation of peptide-Fc from immobilized aMinoC1; format: binding; settings: peptide-Fc 100 nM, small molecule 1 μM
Procedure: Binding assays were carried out using 1x HBS-EP+ running buffer. Various concentrations (2.5 μM with 2-fold serial dilutions) of the analyte were injected for 150 s at 30 μL/min with 150 s dissociation time. Glycine-HCl (pH 2.0) was used as the regeneration buffer for the sensor chips. For the rechallenge experiment, aMinoC1 was immobilized on a CM5 sensor chip and CX7C peptide-Fc conjugates were loaded at 100 nM and injected as the analyte for 150 s at 30 μL/min. Following the injection of peptide-Fc, a small molecule at 1 μM was injected for 300 s at 30 μL/min, using dual injection function on a Biacore 8k instrument, to dissociate the peptide-Fc from the aMinoC1-peptide complex. The system was then washed using HBS-P^+ buffer for 300 s at 30 μL/min prior to rechallenge with peptide-Fc. The cycle was repeated three times following a final dissociation step of 300 s. For the alanine scanning experiments, the anti-minocycline antibody (sdAb-muIgG2a-Fc fusion) was captured on a Protein A series S sensor chip, to a density of 3000 RU. […] Glycine-HCl (pH 1.5) was used as the regeneration buffer. In each case, flow cell 1 was used for reference subtraction, and a “0 concentration” sensogram of buffer alone was used as a double reference subtraction to factor for drift. Data analysis was carried out using Biacore T200 Evaluation Software, version 3.0, and Biacore Insight evaluation software. The 1:1 Langmuir binding model was used to calculate the association (ka), dissociation (kd) rate constants, and equilibrium dissociation constant (KD).

aMinoC1 sdAb = experiment: ELISA of CX7C-muIgG2a-Fc peptide fusions on aMinoC1 with or without minocycline; format: binding, alpaca; settings: 1 μM minocycline

CN(C)c1ccc(O)c2c1C[C@H]1C[C@H]3[C@H](N(C)C)C(O)=C(C(N)=O)C(=O)[C@@]3(O)C(O)=C1C2=O [minocycline]
cell aggregate formation [1]: random distribution of cells without a clear spatial organization
blood–brain barrier crossing [2]: can cross the blood–brain barrier
half-life in blood [2]: 12 to 24 h
time of serum concentration peak [2]: 2 to 3 h
cytokine (IFN-γ) reduction [3]: 10 fold
GWARA-Fc dissociation from immobilized aMinoC1 on small-molecule injection (aMinoC1-peptide complex): acceleration of GWARA-Fc dissociation; also recorded: specifically reversed
peptide-Fc (HWAQA, PWAYS and QWAMM) dissociation from immobilised aMinoC1 on small-molecule injection (aMinoC1-peptide complex): acceleration
ELISA detection of peptide-Fc on aMinoC1 in presence of minocycline (aMinoC1 sdAb): out-competed peptide-Fc conjugates
